Measurements as given in paper PMC8467576, “Novel Ubiquitin Specific Protease-13 Inhibitors Alleviate Neurodegenerative Pathology” (Metabolites, 2021).

Experiments:
Format in all cases: in vivo, mouse
human alpha-synuclein = assay: Alpha-synuclein levels in TgA53T mice (WB, ELISA, DAB staining); conditions: vs DMSO; for reduction of number of human alpha-synuclein positive neurons: 40 mg/Kg I.P. daily for 7 days
Method: (§1) Male and female TgA53T mice (15 months old) were treated daily with intraperitoneal injection of DMSO versus 10 mg/kg or 40 mg/kg BK50118-C for 7 days. […] ELISA measurement of alpha-synuclein in the same extracts (Figure 4C) confirmed that human alpha-synuclein was reduced by about 30% (10 mg/kg) and 56% (40 mg/kg), respectively (Figure 4C).
(§2) BK50118-C is one of novel small molecule inhibitors of USP13 synthesized in our laboratory. For BK50118-C treatment, approximately 15 months old (±1 month) male and female TgA53T mice were treated with intraperitoneal injection of vehicle (DMSO) or BK50118-C at the daily dosage of 10 mg/Kg or 40 mg/Kg for 7 days. Animals were age and sex-matched in their respective treatment cohorts. All animals were sacrificed after treatment. All experiments were conducted in full compliance with the recommendations of Georgetown University Animal Care and Use Committee. These experiments were conducted under animal protocol No. 2016-1194 titled, Misfolded Protein Clearance in Neurodegeneration, which was approved by the Georgetown University IACUC. Protocol Information: IACUC Protocol Number: 2016-1194. Protocol Approval Date: 14 September 2020 Expiration Date: 14 September 2023.
To extract the soluble proteins from mouse midbrain lysates, tissues were isolated and homogenized in 1x STEN buffer (50 mM Tris (pH 7.6), 150 mM NaCl, 2 mM EDTA, 0.2% NP-40, 0.2% BSA, 20 mMPMSF and protease cocktail inhibitor), centrifuged at 10,000× g for 20 min at 4 °C, and the supernatant containing the soluble protein fraction was collected. Extracts were analyzed by Western blot (WB) on 4–12% SDS NuPAGE Bis-Tris gel (Invitrogen, NP0301BOX). Beta-actin (β-actin) was probed (1:3000) with monoclonal antibody (Emdmillipore, MAB1501R, Burlington, MA, USA). Human alpha-synuclein was probed (1:2000) with monoclonal antibody (Thermo Fisher, AHB0261, Rockford, IL, USA). USP13 was probed (1:1000) with polyclonal antibody (ThermoFisher, PA5-12014, Rockford, IL, USA). Ubiquitin was probed (1:5000) with polyclonal antibody (Thermo Fisher, PA3-16717, Rockford, IL, USA). WBs were quantified by densitometry using Quantity One 4.6.3 software (Bio Rad, Hercules, CA, USA) and Image J.
(§3) The ELISA for USP13 (MyBioSource, Cat # MBS9335287, San Diego, CA, USA), Human alpha-synuclein (Biolegend, Cat # 844101, San Diego, CA, USA) and specific p-Tau ser396 (Invitrogen, KHB7031, Waltham, MA, USA) were performed on cell or brain tissue extracts as described above according to manufacturers’ protocol.
DAB staining was performed for alpha-synuclein (Thermo Fisher, AHB0261, Rockford, IL, USA) on the 20 µm thick mouse brain sections, and stereological counting of alpha-synuclein+ neurons counterstained with Nissl was conducted.

[1] = system: alpha-synuclein ubiquitination; assay: Alpha-synuclein ubiquitination in TgA53T mice (IP/WB, co-localization immunostaining)
Method: as §1
To ascertain the mechanistic effects of BK50118-C on alpha-synuclein clearance, we performed immunostaining in striatum of TgA53T mice. […] We also performed the staining of tyrosine hydroxylase (TH) in the striatum of TgA53T mice. TH is the enzyme responsible for catalyzing the rate limiting step in synthesis of L-3,4-dihydroxyphenylalanine(L-DOPA) which is a precursor for dopamine (DA). Staining of TH will help to evaluate the status of DA producing neurons in the SN and their terminals in the striatum.
BK50118-C is one of novel small molecule inhibitors of USP13 synthesized in our laboratory. For BK50118-C treatment, approximately 15 months old (±1 month) male and female TgA53T mice were treated with intraperitoneal injection of vehicle (DMSO) or BK50118-C at the daily dosage of 10 mg/Kg or 40 mg/Kg for 7 days. […]
Mouse brain tissues were homogenized in 1x STEN buffer, and the soluble fraction was isolated as indicated above. […] The supernatant was recovered and quantified by protein assay, and a total of 300 µg protein was incubated overnight at 4 °C with primary anti-alpha-synuclein (1:200, Thermofisher, AHB0261) mouse antibodies or anti-ubiquitin (1:100) (Thermo Fisher, PA3–16717, Rockford, IL, USA) antibodies in the presence of sepharose G and an IgG control with primary antibodies. […]
Immunohistochemistry was performed on the 20 µm thick brain sections for evaluation of ubiquitination of alpha-synuclein. […] The optic densitometry of co-localization of ubiquitin with alpha-synuclein was measured using Image J. Tyrosine hydroxylase (TH) is the limiting enzyme in DA synthesis, so probing for TH+ neurons will help to evaluate the status of DA producing neurons in the SN and their terminals in the striatum. […]

ptau396 = assay: p-Tau ser396 ELISA in TgA53T mice; conditions: 10 mg/Kg or 40 mg/Kg I.P. daily for 7 days
Method: Therefore, we also measured tau levels. There was no effect on murine tau levels (Figure 4D).
as §2, §3

[2] = midbrain extracts, 40 mg/kg vs DMSO and 10 mg/kg, 7 days

Structure (SMILES): Fc1ccc2nccc(OCc3ccccc3)c2c1 [BK50118-C, 4-benzyloxy-6-fluoroquinoline]
- reduction of human alpha-synuclein in midbrain extracts (ELISA) (human alpha-synuclein; 10 mg/kg I.P. daily for 7 days): about 30%
- human alpha-synuclein in midbrain lysates (WB) (human alpha-synuclein; 10 mg/kg or 40 mg/kg I.P. daily for 7 days): significantly reduced
- reduction of human alpha-synuclein in midbrain extracts (ELISA) (human alpha-synuclein; 40 mg/kg I.P. daily for 7 days): ~56%
- reduction of number of human alpha-synuclein positive neurons (human alpha-synuclein; cortex): 42%
- reduction of number of human alpha-synuclein positive neurons (human alpha-synuclein; striatum): 40%
- ubiquitination after immunoprecipitation of alpha-synuclein followed by ubiquitin WB [1, 2]: increased ubiquitination
- ubiquitination of alpha-synuclein after immunoprecipitation of ubiquitin followed by alpha-synuclein WB [1, 2]: increased ubiquitination of alpha-synuclein
- increase in alpha-synuclein-ubiquitin co-localization (optic density) ([1]; striatum, 40 mg/Kg I.P. daily for 7 days, vs DMSO): 130%
- effect on murine tau levels (ptau396 ELISA) (ptau396): no effect
